Assay results: US20260240826A1, “COMPOSITIONS FOR PD-L1 INHIBITION AND METHODS OF USE THEREOF” (ARIZONA BOARD OF REGENTS ON BEHALF OF THE UNIVERSITY OF …, priority 2023, published 2026)

System: SKH-1 mouse skin
Experiment: NanoString nCounter gene expression analysis (Mouse Inflammation V2 panel) of SKH-1 mouse skin
Assay type: in vivo
Protocol: UVB exposure was performed on AP-1 luciferase reporter mice on the SKH-1 genetic background at a dose of 2.75 kJ/m2 using FS40 bulbs (Q-Lab Corporation) as described before with the modification that mice were imaged 24 hr post UVB exposure using whole body bioluminescence instead of 48 hr post UVB using ear punches. SSL irradiation of SKH-1 mice (Charles River Laboratories, strain code 477) at a dose of 90 kJ/m2 UVA/6 kJ/m2 UVB was performed using UVA-340 bulbs (Q-Lab Corporation) as described before.
SKH-1 mouse skin [full thickness, 3 biological samples (i.e., 3 mice per treatment group)] treated either with vehicle (acetone) or 8 mM BMS-202 (all 3 times: 24 hr pre, 1 hr pre, and immediately post) and harvested 24 hr after acute SSL. First, total mRNA was prepared using the RNeasy Mini kit (Qiagen). Next, 100 ng was used for NanoString® nCounter® analysis (using the ‘Mouse Inflammation V2’ panel; probing 254 genes, NanoString® Technologies) comparing gene expression between treatment groups. Total mRNA was hybridized with the ‘Mouse Inflammation V2’ code set at 65° C. overnight. Further purification and binding of the hybridized probes to the optical cartridge was performed on the nCounter® Prep Station, and finally, the cartridge was scanned on the nCounter® Digital Analyzer. RCC files were then imported into nSolver4.0 software (NanoString® Technologies) and checked for data quality using default QC settings; all samples passed data quality QC. All samples were normalized using the geometric mean of the housekeeper genes. Expression ratios were calculated by dividing the mean values of all samples in one experimental group (UV+BMS-202) by the mean values of all samples in the reference group (UV+vehicle control). For data analysis, low count threshold value was 200. For heatmap depiction (FIGS. 3A and 3B, FIG. 5 and FIG. 6), a z-score for a specific gene indicates the number of SDs away from the mean of expression in the reference samples. For ‘pathway score analysis’ (FIGS. 4A, 4B, and 4C), each sample's gene expression profile was then condensed into a small set of pathway scores using nCounter® Advanced Analysis software (version 2.0.115). Pathway scores were fit using the first principal component of each gene set's data, oriented such that each pathway score has positive weights for at least half its genes.
Individual samples were run in triplicate format of biological replicates, and data analysis was performed using the nSolver analysis software (4.0). For p-value adjustment (Benjamini-Yekutieli False Discovery Rate; p-value threshold: 0.05), nCounter® Advanced Analysis software (version 2.0.115) was used. Nonparametric data analysis of murine experimentation was performed using the Mann-Whitney test. Differences between groups were considered significant at *p<0.05.

[1] = 8 mM topical + SSL vs SSL control, SKH-1 skin, 24 hr
[2] = 8 mM topical + SSL vs vehicle + SSL

COc1nc(OCc2cccc(-c3ccccc3)c2C)ccc1CNCCNC(C)=O [BMS-202]
Bcl6 fold change [1]: −12.8 fold
C1qa fold change [1]: −4.5 fold
C3 fold change [1]: −9.0 fold
C4a fold change [1]: −5.9 fold
C8b fold change [1]: 26.2 fold
C9 fold change [1]: 18.6 fold
Ccl2 fold change [1]: −5.3 fold
Ccl2 fold downregulation [1]: 5.3 fold
Ccl7 fold change [1]: −8.1 fold
Ccl7 fold downregulation [1]: 8.1 fold
Ccl8 fold change [1]: −5.0 fold
Ccl8 fold downregulation [1]: 5.0 fold
Ccr3 fold change [1]: 20.5 fold
Cdc42 fold change [1]: −4.6 fold
Cebpb fold change [1]: −8.3 fold
Cfl1 fold change [1]: −10.8 fold
Chi3l3 fold change [1]: 10.5 fold
Crp fold change [1]: 23.9 fold
Cxcl1 fold change [1]: −4.1 fold
Cxcl1 fold downregulation [1]: 4.1 fold
Cxcl3 fold change [1]: −9.1 fold
Cxcl5 fold change [1]: −11.6 fold
Cxcl5 fold downregulation [1]: 11.6 fold
Cxcl10 fold change [1]: 4.3 fold
Cysltr2 fold change [1]: 14.4 fold
Defa-rs1 fold change [1]: 51.0 fold
Fos fold change [1]: −4.1 fold
Fos fold downregulation [1]: 4.1 fold
Fxyd2 fold change [1]: −17.0 fold
Gnas fold change [1]: −11.5 fold
Gnas fold downregulation [1]: 11.5 fold
Gnb1 fold change [1]: −5.8 fold
Gnb1 fold downregulation [1]: 5.8 fold
Grb2 fold change [1]: −4.5 fold
H2-Eb1 fold change [1]: −14.2 fold
Hif1a fold change [1]: −9.6 fold
Hif1a fold downregulation [1]: 9.6 fold
II1r1 fold downregulation [1]: 5.5 fold
Ifi44 fold change [1]: 5.2 fold
Ifna1 fold change [1]: 89.3 fold
Ifnb1 fold change [1]: 16.4 fold
Ifng fold change [1]: 10.6 fold
Il1b fold downregulation [1]: 2.9 fold
Il1r1 fold change [1]: −5.5 fold
Il1rap fold downregulation [1]: 3.6 fold
Il6ra fold downregulation [1]: 3.4 fold
Il9 fold change [1]: 28.9 fold
Il10rb fold downregulation [1]: 3.2 fold
Il18 fold change [1]: −20.0 fold
Il18 fold downregulation [1]: 20.0 fold
Il21 fold change [1]: 50.1 fold
Il23a fold change [1]: 6.5 fold
Irf1 fold change [1]: −4.1 fold
Itgb2 fold change [1]: −8.2 fold
Jun fold change [1]: −5.9 fold
Jun fold downregulation [1]: 5.9 fold
Kng1 fold change [1]: 14.9 fold
Ly96 (coreceptor of Tlr4) fold downregulation [1]: 11.0 fold
Ly96 fold change [1]: −11.0 fold
Map2k1 fold change [1]: −5.8 fold
Map2k1 fold downregulation [1]: 5.8 fold
Map2k4 fold change [1]: −6.4 fold
Map2k4 fold downregulation [1]: 6.4 fold
Map3k1 fold change [1]: −4.5 fold
Map3k1 fold downregulation [1]: 4.5 fold
Map3k5 fold change [1]: −6.4 fold
Map3k5 fold downregulation [1]: 6.4 fold
Map3k7 fold downregulation [1]: 3.7 fold
Mapk1 fold downregulation [1]: 3.7 fold
Mapk3 fold change [1]: −6.3 fold
Mapk3 fold downregulation [1]: 6.3 fold
Mapk8 fold downregulation [1]: 3.1 fold
Mapk14 fold change [1]: −5.9 fold
Mapk14 fold downregulation [1]: 5.9 fold
Mapkapk2 fold change [1]: −5.2 fold
Mapkapk2 fold downregulation [1]: 5.1 fold
Mbl2 fold change [1]: 15.7 fold
Mef2c fold change [1]: −64.9 fold
Mmp3 fold downregulation [1]: 3.8 fold
Mmp9 fold change [1]: −8.2 fold
Mmp9 fold downregulation [1]: 8.2 fold
Mrc1 fold change [1]: −5.4 fold
Mx1 fold change [1]: 36.2 fold
Mx2 fold change [1]: 5.3 fold
Myc fold downregulation [1]: 3.3 fold
Myd88 fold downregulation [1]: 2.7 fold
Nf2el2 fold downregulation [1]: 3.5 fold
Nfatc3 fold change [1]: −4.1 fold
Nfatc3 fold downregulation [1]: 4.1 fold
Nfkb1 fold change [1]: −5.9 fold
Nfkb1 fold downregulation [1]: 5.9 fold
Nod2 fold change [1]: −5.1 fold
Nos2 fold change [1]: 6.1 fold
Nr3c1 fold change [1]: −4.9 fold
Oas1a fold change [1]: −4.3 fold
Pdgfa fold change [1]: −5.2 fold
Pdgfa fold downregulation [1]: 5.2 fold
Ppp1r12b fold change [1]: −12.1 fold
Ptgs1 fold downregulation [1]: 3.1 fold
Ptgs2 fold downregulation [1]: 1.7 fold
Rac1 fold change [1]: −7.3 fold
Rac1 fold downregulation [1]: 7.3 fold
Raf1 fold change [1]: −5.7 fold
Raf1 fold downregulation [1]: 5.7 fold
Rhoa fold change [1]: −5.9 fold
Shc1 fold change [1]: −7.4 fold
Stat1 fold downregulation [1]: 2.8 fold
Stat2 fold downregulation [1]: 2.5 fold
Stat3 fold change [1]: −7.4 fold
Stat3 fold downregulation [1]: 7.4 fold
Tcf4 fold change [1]: −4.4 fold
Tgfb1 fold change [1]: −13.3 fold
Tgfb1 fold downregulation [1]: 13.3 fold
Tgfb3 fold downregulation [1]: 2.7 fold
Tlr2 fold downregulation [1]: 2.4 fold
Tlr8 fold downregulation [1]: 3.4 fold
Tlr9 fold change [1]: 8.3 fold
Tnfsf14 fold change [1]: 4.8 fold
Trem2 fold change [1]: −4.5 fold
Tslp fold change [1]: 4.3 fold
Tyrobp fold change [1]: −4.9 fold
pathway score: immune response [2]: upregulated
pathway scores: activation of NFκB, innate immune response, chemokine activity, inflammatory response, angiogenesis [2]: downregulated
